Experimental data as given in patent EP4603105A1, “PHARMACEUTICAL COMPOSITION CONTAINING CYCLIC COMPOUND HAVING SELECTIVE KRAS INHIBITORY EFFECT AGAINST HRAS AND NRAS” (CHUGAI SEIYAKU KABUSHIKI KAISHA, priority 2022, dated 2024).
Read-outs that look alike come from different tables or passages of the source.

Assays:
[1] = target: GDP-bound NRAS wild-type protein (Homo sapiens, UniProt P01111); assay: Binding to NRAS by surface plasmon resonance (SPR), KD and KD ratio to KRAS
Outline: (§1)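 Captured GDP-RAS (~100–300 RU) was exposed to increasing compound concentrations, 75 s per step, in running buffer with 10 µM GDP, 10 mM MgCl2 and 4% DMSO at pH 7.4.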

[2] = target: GDP-bound KRAS wild-type protein (Homo sapiens, UniProt P01116); assay: Binding to KRAS by surface plasmon resonance (SPR), dissociation constant KD
Outline: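 Each cycle, GDP-bound biotin-Avi RAS was captured (~100–300 RU), compound concentrations were injected low to high for 75 s each at 100 µL/min, then the chip was regenerated. Buffer: HBS pH 7.4, 10 mM MgCl2, 10 µM GDP, 1 mM DTT, 4% DMSO; 30°C. KD from a 1:1 binding model.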

[3] = tested on: human lung cancer strain NCI-H441; assay: NCI-H441 cell proliferation inhibitory activity (CellTiter-Glo, 4 days); format: cell-based; settings: read-out: NCl-H441 IC50
Outline: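 Step one: dispense the test compound in serial DMSO dilutions. Step three: add the reagent and measure […].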

HRAS wild-type protein = HRAS wild-type protein (Homo sapiens, UniProt P01112); assay: Binding to HRAS by surface plasmon resonance (SPR), KD and KD ratio to KRAS
Outline: as §1

[4] = ratio of KD for GDP-bound NRAS wild-type protein to KD for KRAS
[5] = ratio of KD for HRAS wild-type protein to KD for KRAS
[6] = ratio of KD with respect to GDP-bound NRAS wild-type protein to KD with respect to KRAS
[7] = Single Cycle Kinetics, 1:1 binding model
[8] = 50% proliferation inhibitory concentration, four days
[9] = ratio of KD with respect to HRAS wild-type protein to KD with respect to KRAS

Chain of GDP-bound KRAS wild-type protein (P01116 1-188 isoform P01116-2): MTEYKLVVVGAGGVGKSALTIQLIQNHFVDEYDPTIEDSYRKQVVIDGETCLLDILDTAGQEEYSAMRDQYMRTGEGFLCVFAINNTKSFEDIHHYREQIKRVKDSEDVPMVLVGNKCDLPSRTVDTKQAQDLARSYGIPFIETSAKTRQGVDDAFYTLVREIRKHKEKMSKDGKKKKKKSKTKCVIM
Chain of HRAS wild-type protein (P01112 whole entry): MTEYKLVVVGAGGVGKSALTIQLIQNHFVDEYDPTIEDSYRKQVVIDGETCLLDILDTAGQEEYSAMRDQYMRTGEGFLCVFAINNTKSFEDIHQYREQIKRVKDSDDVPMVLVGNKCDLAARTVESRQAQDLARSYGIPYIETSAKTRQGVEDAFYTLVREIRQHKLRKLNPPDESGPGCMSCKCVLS
Chain of GDP-bound NRAS wild-type protein (P01111 whole entry): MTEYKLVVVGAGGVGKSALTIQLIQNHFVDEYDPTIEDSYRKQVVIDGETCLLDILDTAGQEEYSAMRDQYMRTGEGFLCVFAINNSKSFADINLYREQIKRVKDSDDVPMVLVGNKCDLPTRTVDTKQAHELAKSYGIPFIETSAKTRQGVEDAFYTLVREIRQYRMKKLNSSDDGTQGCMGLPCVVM

Row | Compound | NRAS /KRAS [1, 4] | Kd ([2]; 1:1 binding model) | IC50 ([3]; NCI-H441 cells, 4 days) | HRAS /KRAS (HRAS wild-type protein; [5]) | Kd ([2]; Single Cycle Kinetics) | NRAS /KRAS [1, 6] | Kd [2, 7] | IC50 [3, 8] | HRAS /KRAS (HRAS wild-type protein; [9])
1 | CCOC[C@H]1C(=O)N[C@@H]([C@@H](C)CC)C(=O)N(C)CC(=O)N(C)[C@H]2C/C=C\CCN(C2=O)[C@@H](CC2CCCCC2)C(=O)N(C)CC(=O)N[C@@H](CCc2cc(F)c(C(F)(F)F)c(F)c2)C(=O)N2C[C@H](OCC)C[C@H]2C(=O)NC2(CC(C)(C)C2)C(=O)N(C)[C@@H](C(CC)CC)C(=O)N(C)[C@H](C(=O)N(C)C)CC(=O)N1C [PP2479] | AA (a compound having 20 or more is denoted as AA) | 1.4 nM | 26 nM | A (a compound having 10 or more and less than 20 is denoted as A) | – | – | – | – | –
2 | CCC[C@H]1C(=O)N[C@@H](CC(C)C)C(=O)N2C[C@@H](OC)C[C@H]2C(=O)N(C)[C@H]2C/C=C\CCN(C2=O)[C@@H](Cc2ccc(C)cc2)C(=O)N(C)CC(=O)N[C@@H](CCc2cc(F)c(C(F)(F)F)c(F)c2)C(=O)N2C[C@H](OCC)C[C@H]2C(=O)NC2(CC(C)(C)C2)C(=O)N(C)[C@@H](C2CCCC2)C(=O)N(C)[C@H](C(=O)N(C)C)CC(=O)N1C [PP2553] | A (a compound having 10 or more and less than 20 is denoted as A) | 3.4 nM | 121 nM | B (a compound having 3 or more and less than 10 is denoted as B) | – | – | – | – | –
3 | C#CC[C@H]1C(=O)N[C@@H]([C@@H](C)CC)C(=O)N(C2CC2)CC(=O)N(C)[C@H]2C/C=C\CCN(C2=O)[C@@H](Cc2ccc(C)cc2)C(=O)N(C)CC(=O)N[C@@H](CCc2ccc(C(F)(F)F)c(OC)c2)C(=O)N2C[C@H](OCC)C[C@H]2C(=O)N(C)C2(CCC2)C(=O)N(C)[C@@H](C2CCCC2)C(=O)N(C)[C@H](C(=O)N(C)C)CC(=O)N1C [PP3248] | A (a compound having 10 or more and less than 20 is denoted as A) | – | 4.5 nM | A (a compound having 10 or more and less than 20 is denoted as A) | 0.078 nM | – | – | – | –
4 | CCO[C@@H]1C[C@H]2C(=O)NC3(CCC3)C(=O)N(C)[C@@H](C(CC)CC)C(=O)N(C)[C@H](C(=O)N(C)C)CC(=O)N(C)[C@@H](CC)C(=O)N[C@@H]([C@@H](C)CC)C(=O)N(C)CC(=O)N(C)[C@H]3C/C=C\CCN(C3=O)[C@@H](Cc3ccc(C(F)(F)F)cc3)C(=O)N(C)CC(=O)N[C@@H](CCc3cc(F)c(C(F)(F)F)c(F)c3)C(=O)N2C1 [PP1200] | – | – | – | – | – | AA (a compound having 20 or more is denoted as AA) | 0.2 nM | 19.2 nM | A (a compound having 10 or more and less than 20 is denoted as A)
5 | CCC[C@H]1C(=O)N[C@@H]([C@@H](C)CC)C(=O)N(C)CC(=O)N(C)[C@H]2C/C=C\CCN(C2=O)[C@@H](Cc2ccc(C(F)(F)F)cc2)C(=O)N(C)CC(=O)N[C@@H](CCc2cc(F)c(C(F)(F)F)c(F)c2)C(=O)N2CC[C@H](OC)[C@H]2C(=O)N(C)C2(CCC2)C(=O)N(C)[C@@H](C2CCCC2)C(=O)N(C)[C@H](C(=O)N(C)C)CC(=O)N1C [PP3284] | A (a compound having 10 or more and less than 20 is denoted as A) | – | 5 nM | A (a compound having 10 or more and less than 20 is denoted as A) | 0.067 nM | – | – | – | –
6 | CCO[C@@H]1C[C@H]2C(=O)NC3(CC(C)(C)C3)C(=O)N(C)[C@@H](CC(C)(C)C)C(=O)N(C)[C@H](C(=O)N(C)C)CC(=O)N(C)[C@@H](COC)C(=O)N[C@@H]([C@@H](C)CC)C(=O)N(C3CC3)CC(=O)N(C)[C@H]3C/C=C\CCN(C3=O)[C@@H](Cc3ccc(C(F)(F)F)cc3)C(=O)N(C)CC(=O)N[C@@H](CCc3ccc(C(F)(F)F)c(OC)c3)C(=O)N2C1 [PP2748] | A (a compound having 10 or more and less than 20 is denoted as A) | 0.2 nM | 7.1 nM | A (a compound having 10 or more and less than 20 is denoted as A) | – | – | – | – | –
7 | CCC[C@H]1C(=O)N[C@@H]([C@@H](C)CC)C(=O)N(C)CC(=O)N(C)[C@H]2C/C=C\CCN(C2=O)[C@@H](Cc2ccc(C)cc2)C(=O)N(C)CC(=O)N[C@@H](CCc2cc(F)c(C(F)(F)F)c(F)c2)C(=O)N2C[C@H](OCC)C[C@H]2C(=O)NC2(CC(C)(C)C2)C(=O)N(C)[C@@H](CC2CCC2)C(=O)N(C)[C@H](C(=O)N(C)C)CC(=O)N1C [PP2751] | A (a compound having 10 or more and less than 20 is denoted as A) | 0.85 nM | 39.3 nM | A (a compound having 10 or more and less than 20 is denoted as A) | – | – | – | – | –
8 | CCO[C@@H]1C[C@H]2C(=O)NC3(CCC3)C(=O)N(C)[C@@H](C3CCCC3)C(=O)N(C)[C@H](C(=O)N(C)C)CC(=O)N(C)[C@@H](CC3CC3)C(=O)N[C@@H]([C@@H](C)CC)C(=O)N(C)CC(=O)N(C)[C@H]3C/C=C\CCN(C3=O)[C@@H](Cc3ccc(F)cc3)C(=O)N(C)CC(=O)N[C@@H](CCc3cc(F)c(Cl)c(F)c3)C(=O)N2C1 [PP1479] | – | – | – | – | – | A (a compound having 10 or more and less than 20 is denoted as A) | 0.49 nM | 140 nM | B (a compound having 3 or more and less than 10 is denoted as B)
9 | CCO[C@@H]1C[C@H]2C(=O)NC3(CC(C)(C)C3)C(=O)N(C)[C@@H](C3CCCC3)C(=O)N(C)[C@H](C(=O)N(C)CC)CC(=O)N(C)[C@@H]([C@@H](C)OC)C(=O)N[C@@H]([C@@H](C)CC)C(=O)N3CCC[C@H]3C(=O)N(C)[C@H]3C/C=C\CCN(C3=O)[C@@H](Cc3ccc(C(F)(F)F)cc3)C(=O)N(C)CC(=O)N[C@@H](CCc3cc(F)c(C(F)(F)F)c(F)c3)C(=O)N2C1 [PP3172] | AA (a compound having 20 or more is denoted as AA) | – | 69.9 nM | A (a compound having 10 or more and less than 20 is denoted as A) | 0.81 nM | – | – | – | –
10 | CCOC[C@H]1C(=O)N[C@@H]([C@@H](C)CC)C(=O)N(C)CC(=O)N(C)[C@H]2C/C=C\CCN(C2=O)[C@@H](Cc2ccc(C)cc2)C(=O)N(C)CC(=O)N[C@@H](CCc2ccc(C(F)(F)F)c(OC)c2)C(=O)N2C[C@H](OCC)C[C@H]2C(=O)NC2(CC(C)(C)C2)C(=O)N(C)[C@@H](C2CCCC2)C(=O)N(C)[C@H](C(=O)N(CC)CC)CC(=O)N1C [PP2406] | A (a compound having 10 or more and less than 20 is denoted as A) | 0.29 nM | 21.3 nM | A (a compound having 10 or more and less than 20 is denoted as A) | – | – | – | – | –
11 | CCC(CC)[C@H]1C(=O)N(C)[C@H](C(=O)N2CCCCC2)CC(=O)N(C)[C@@H](COC)C(=O)N[C@@H]([C@@H](C)CC)C(=O)N(C)CC(=O)N(C)[C@H]2C/C=C\CCN(C2=O)[C@@H](Cc2ccc(C(F)(F)F)cc2)C(=O)N(C)CC(=O)N[C@@H](CCc2cc(F)c(C(F)(F)F)c(F)c2)C(=O)N2C[C@H](OC(C)C)C[C@H]2C(=O)NC2(CC(C)(C)C2)C(=O)N1C [PP2608] | AA (a compound having 20 or more is denoted as AA) | 1.4 nM | 53 nM | A (a compound having 10 or more and less than 20 is denoted as A) | – | – | – | – | –
12 | CCC[C@H]1C(=O)N[C@@H]([C@@H](C)CC)C(=O)N(C)CC(=O)N(C)[C@H]2C/C=C\CCN(C2=O)[C@@H](Cc2ccc(C)cc2)C(=O)N(C)CC(=O)N[C@@H](CCc2cc(F)c(C(F)(F)F)c(F)c2)C(=O)N2C[C@H](OCC)C[C@H]2C(=O)NC2(CC(C)(C)C2)C(=O)N(C)[C@@H](CC(C)(C)C)C(=O)N(C)[C@H](C(=O)N(C)C)CC(=O)N1C [PP2706] | A (a compound having 10 or more and less than 20 is denoted as A) | 0.076 nM | 2.3 nM | B (a compound having 3 or more and less than 10 is denoted as B) | – | – | – | – | –
13 | CCCCCC[C@H]1C(=O)N[C@@H]([C@@H](C)CC)C(=O)N(C)CC(=O)N(C)[C@H]2C/C=C\CCN(C2=O)[C@@H](Cc2ccc(C(F)(F)F)cc2)C(=O)N(C)CC(=O)N[C@@H](CCc2ccc(C(F)(F)F)c(OC)c2)C(=O)N2C[C@H](OCC)C[C@H]2C(=O)NC2(CCC2)C(=O)N(C)[C@@H](C2CCCC2)C(=O)N(C)[C@H](C(=O)N(C)C)CC(=O)N1C [PP1246] | – | – | – | – | – | A (a compound having 10 or more and less than 20 is denoted as A) | 0.081 nM | 9 nM | A (a compound having 10 or more and less than 20 is denoted as A)
14 | CCOC[C@H]1C(=O)N[C@@H]([C@@H](C)CC)C(=O)N(C)CC(=O)N(C)[C@H]2C/C=C\CCN(C2=O)[C@@H](CC2CCC(F)(F)CC2)C(=O)N(C)CC(=O)N[C@@H](CCc2ccc(C(F)(F)F)c(Cl)c2)C(=O)N2C[C@@H](C)C[C@H]2C(=O)NC2(CC(C)(C)C2)C(=O)N(C)[C@@H](C(CC)CC)C(=O)N(C)[C@H](C(=O)N(C)C)CC(=O)N1C [PP2475] | AA (a compound having 20 or more is denoted as AA) | 1.5 nM | 176 nM | A (a compound having 10 or more and less than 20 is denoted as A) | – | – | – | – | –
